Legend:
4T1-luciferase tumor = 4T1-luciferase tumor model: IR with compound 1, cGAMP and/or anti-CTLA-4; tumor volume and survival; type: in vivo, Balb/c mice; settings: 20 Gy IR + 10 μg cGAMP intratumoral alone
4T1 tumor model = test: Tumor-associated dendritic cells in mouse 4T1 tumor model with or without IR (FACS); type: in vivo, Balb/c mice; settings: intratumoral 100 μL of 1 mM
Description: Anaesthetized animals were shielded with a 3.2 mm lead shield with a 15×20 mm aperture where the tumor was placed. […] On the next day, the tumor was extracted and incubated in RPMI+10% FBS with 20 μg/mL DNase I type IV (Sigma-Aldrich) and 1 mg/mL Collagenase from Clostridium histolyticum (Sigma-Aldrich) at 37° C. for 30 min. […] Cells were stained with Live/Dead fixable near-IR dead cell staining kit (Thermo Fisher Scientific), Fc-blocked for 10 min using TruStain fcX and subsequently antibody-stained with CD11c, CD45, and I-A/I-E (all Biolegend). Cells were analyzed using an SH800S cell sorter (Sony) or an LSR II (BD Biosciences).

[1] = target: T1, purified recombinant mouse ENPP1 (Mus musculus, UniProt P06802); test: ENPP1 activity assay using TMP-pNP as a substrate; type: biochemical; settings: TMP-pNP 2 μM, mouse ENPP1 0.5 nM, pH 7.5
T1 sequence (P06802 1-906): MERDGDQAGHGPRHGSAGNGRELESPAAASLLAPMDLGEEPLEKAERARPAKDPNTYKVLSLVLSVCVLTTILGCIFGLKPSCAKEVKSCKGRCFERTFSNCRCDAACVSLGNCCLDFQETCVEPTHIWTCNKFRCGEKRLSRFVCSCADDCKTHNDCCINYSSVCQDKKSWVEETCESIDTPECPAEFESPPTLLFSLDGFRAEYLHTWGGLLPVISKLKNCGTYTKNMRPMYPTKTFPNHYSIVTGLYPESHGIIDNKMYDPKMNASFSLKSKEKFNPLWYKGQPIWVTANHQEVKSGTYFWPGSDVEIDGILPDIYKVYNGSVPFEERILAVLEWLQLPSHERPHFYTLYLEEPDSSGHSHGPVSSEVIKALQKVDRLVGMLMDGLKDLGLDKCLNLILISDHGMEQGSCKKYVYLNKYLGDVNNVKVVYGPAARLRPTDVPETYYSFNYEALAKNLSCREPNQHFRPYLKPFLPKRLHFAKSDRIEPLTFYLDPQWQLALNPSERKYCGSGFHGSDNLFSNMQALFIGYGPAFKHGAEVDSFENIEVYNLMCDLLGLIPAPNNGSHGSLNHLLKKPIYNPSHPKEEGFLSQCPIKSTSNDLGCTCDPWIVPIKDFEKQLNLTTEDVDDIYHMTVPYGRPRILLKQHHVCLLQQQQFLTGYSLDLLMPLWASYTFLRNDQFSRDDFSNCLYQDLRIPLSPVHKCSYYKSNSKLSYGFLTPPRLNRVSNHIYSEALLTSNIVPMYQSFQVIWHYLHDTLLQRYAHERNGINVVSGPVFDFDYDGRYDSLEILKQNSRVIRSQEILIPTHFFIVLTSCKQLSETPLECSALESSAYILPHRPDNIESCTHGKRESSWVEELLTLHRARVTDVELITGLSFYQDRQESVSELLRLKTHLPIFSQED
Description: Selected compounds of Table 1, Table 2, Table 3, Table 4, Table 5, or Table 6 and other derivatives were prepared and assessed in an ENPP1 activity assay using thymidine monophosphate paranitrophenol (TMP-pNP) as a substrate. Enzyme reactions were prepared with TMP-pNP (2 μM), 5-fold dilutions of ENPP1 inhibitor, and purified recombinant mouse ENPP1 (0.5 nM) in 100 mM Tris, 150 mM NaCl, 2 mM CaCl2, 200 μM ZnCl2, pH 7.5 at room temperature. Reaction progress was monitored by measuring absorbance at 400 nm of paranitrophenolate produced by the reaction for 20 minutes.

IFN-γ secretion = test: IFN-γ ELISA / ELISpot of splenocytes from B16F10 tumor bearing mice given donor T cells; type: in vivo, C57BL/6 mice
From the text: This example describes the in vitro activation and expansion of donor C57BL/6 pmel-1 splenocytes by INF-γ ELISA and INF-γ Elispot analysis of splenocytes derived from B16F10 melanoma syngeneic tumor model inoculated with Pmel-1 donor splenocytes (T-cells). Briefly, spleens and splenocytes from C57BL-B16F10 tumor bearing mice treated with or without an ENPP1 inhibitor and donor T cells are harvested and purified as described in Example 8. To test for cytokine secretion, the isolated splenocytes are then plated and co-cultured with gp100 peptide on a plate of an ELISpot kit and IFN-γ secretion is detected. The number of spots is counted for each well and summarized for each group. Additionally, or alternatively, IFN-γ secretion is detected with a IFN-γ ELISA test.

B16F10 melanoma = B16F10 melanoma with pmel-1 donor splenocytes (adoptive T cell therapy): tumor size and tumor flow cytometry; type: in vivo, C57BL/6 mice
From the text: For the study, 0.2×10^6 B16F10 melanoma cells/mouse were implanted on day −8 on flanks of C57BL/6 female mice. On day 0, when tumor size had reached about 80 mm3, mice were randomized into 3 groups with an n=12/group. All mice in the three groups were subjected to whole body irradiation with 5.0 Gy for lymphodepletion. […] gp100 specific donor splenocytes were harvested from C57BL/6 pmel-1 donor mice (The Jackson Laboratory, world wide web.jax.org/strain/005023). Briefly, splenocytes comprising immune cells such as T cells from spleens of 18 pmel-1 female C57BL/6 mice (Jackson labs) were harvested yielding˜90 Million splenocytes. The pmel-1 splenocytes were isolated, the red blood cells lysed, and the remaining splenocytes expanded and activated with IL-2 and gp100 antigen for 4 days in vitro, and administered to the B16 melanoma bearing mice by i.v. On day 7, mice were sacrificed, and tumor, spleen, and blood samples were collected. Tumor size of all three treatment groups were measured on days 0, 2, 5 and 7 (FIGS. 6 and 7). […] After mice were sacrificed, tumor samples were tested for the fraction of several live immune cells (CD45+ cells) in the tumor. Briefly, tumors were harvested, and samples digested with tumor digestion mix and cells collected and washed in FACS buffer. A sample of cells was stained with a live/dead stain (ef780) to test for live cells and enumerated by flow cytometry. […] When staining for intracellular markers, cells were fixed and permeabilized before staining with markers (ki67). For example, cells were stained with markers for MDSC and F4/80 macrophages and enumerated by flow cytometry. […] Samples were also analyzed for the percentage of gp100+, CD8+ T cells actively proliferating (ki67+ cells) that were present in the tumor.

[2] = 50 mg/kg plus donor splenocytes

Description for CD14+ IFNB1 expression: Primary human peripheral blood mononucleocyte cells (PBMCs) were isolated by subjecting enriched buffy coat from whole blood to a Percoll density gradient. CD14^+ monocytes were isolated using CD14^+ MicroBeads (Miltenyi). CD14^+ monocyctes were cultured in RPMI supplemented with 2% human serum and 100 U/mL penicillin-streptomycin. […] 24-26 hours following supernatant transfer, total RNA was extracted using Trizol (Thermo Fisher Scientific) and reverse transcribed with Maxima H Minus Reverse Transcriptase (Thermo Fisher Scientific). Real-time RT-PCR was performed in duplicate with AccuPower 2×Greenstar qPCR Master Mix (Bioneer) on a 7900HT Fast Real-Time PCR System (Applied Biosystems). Data were normalized to CD14 expression for each sample. Fold induction was calculated using ΔΔCt.
Supernatant from these cells was transferred to primary CD14^+ human PBMCs. IFNB1 mRNA levels were normalized to CD14 and the fold induction was calculated relative to untreated CD14^+ cells.

Nc1nc2c(ncn2[C@@H]2O[C@@H]3COP(=O)(O)O[C@H]4[C@@H](O)[C@H](n5cnc6c(N)ncnc65)O[C@@H]4COP(=O)(O)O[C@@H]2[C@@H]3O)c(=O)[nH]1 [cGAMP, cyclic guanosine monophosphate-adenosine monophosphate]
effect over IR treatment (tumor) (4T1-luciferase tumor): no effect

COc1cc2ncnc(N3CCC(CCP(=O)(O)O)CC3)c2cc1OC [compound 1]
extracellular cGAMP levels (CD14+ IFNB1 expression; 293T cGAS ENPP1low cells transiently overexpressing ENPP1): rescued | CD14+ IFNB1 expression (CD14+ IFNB1 expression; supernatant of ENPP1-overexpressing 293T cGAS ENPP1low cells transferred to CD14+ monocytes): induced | tumor-associated leukocyte compositions compared to the PBS control (4T1 tumor model; no IR): did not change | tumor associated CD11c+ population (4T1 tumor model; tumors pretreated with 20 Gy IR): increased

O=P(O)(O)CCC1CCN(c2ncnc3ccccc23)CC1 [compound 25]
IC50 [1]: 0.005 to 0.05 µM

COc1cccc2c(N3CCC(CCP(=O)(O)O)CC3)ncnc12 [Compound 76]
IFN-γ secretion compared to PBS with donor T cells (IFN-γ secretion; 5 mg/kg plus donor T cells): elevated | IFN-γ secretion compared to PBS with donor T cells (IFN-γ secretion; 50 mg/kg plus donor T cells): elevated | tumor size at day 7 compared to PBS with donor cells (B16F10 melanoma; 5 mg/kg and donor T cells): smaller reduction in tumor size | percentage of F4/80+ macrophages in tumors compared to PBS with donor T cells (B16F10 melanoma; 5 mg/kg plus donor T cells): higher | percentage of MDSC macrophages in tumors compared to PBS with donor T cells (B16F10 melanoma; 5 mg/kg plus donor T cells): lower | percentage of live cells in tumors compared to PBS with donor T cells (B16F10 melanoma; 5 mg/kg plus donor T cells): higher | percentage of Thy1.1+ (pmel-1 derived), gp100+, CD8+ donor T cells in tumors compared to PBS with donor splenocytes (B16F10 melanoma; 5 mg/kg plus donor splenocytes): higher | percentage of Thy1.2+ host cells in tumors (B16F10 melanoma; 5 mg/kg plus donor splenocytes): declined reciprocally | percentage of gp100+, CD8+, ki67+ T cells in tumors compared to PBS with donor splenocytes (B16F10 melanoma; 5 mg/kg plus donor splenocytes): higher | tumor size at day 7 compared to PBS with donor cells (B16F10 melanoma; 50 mg/kg and donor T cells): marked reduction in tumor size | percentage of F4/80+ macrophages in tumors compared to PBS with donor T cells (B16F10 melanoma; 50 mg/kg plus donor T cells): higher | percentage of MDSC macrophages in tumors compared to PBS with donor T cells (B16F10 melanoma; 50 mg/kg plus donor T cells): lower | percentage of live cells in tumors compared to PBS with donor T cells (B16F10 melanoma; 50 mg/kg plus donor T cells): higher | percentage of Thy1.1+ (pmel-1 derived), gp100+, CD8+ donor T cells in tumors compared to PBS with donor splenocytes (B16F10 melanoma; [2]): higher | percentage of Thy1.2+ host cells in tumors (B16F10 melanoma; [2]): declined reciprocally | percentage of gp100+, CD8+, ki67+ T cells in tumors compared to PBS with donor splenocytes (B16F10 melanoma; [2]): higher

— patent US20240374724A1, “ENPP1 INHIBITORS AND IMMUNE CELLS EXPRESSING CHIMERIC ANTIGEN RECEPTORS” (Angarus Therapeutics, Inc., priority 2021, published 2024)
